The text below walks through data of patent US7803795B2, “Phthalazine derivatives as parp inhibitors” (Janssen Pharmaceutica N.V., priority 2004, dated 2010).

The structures appear in SMILES notation.

T1 sequence (P09874 whole entry): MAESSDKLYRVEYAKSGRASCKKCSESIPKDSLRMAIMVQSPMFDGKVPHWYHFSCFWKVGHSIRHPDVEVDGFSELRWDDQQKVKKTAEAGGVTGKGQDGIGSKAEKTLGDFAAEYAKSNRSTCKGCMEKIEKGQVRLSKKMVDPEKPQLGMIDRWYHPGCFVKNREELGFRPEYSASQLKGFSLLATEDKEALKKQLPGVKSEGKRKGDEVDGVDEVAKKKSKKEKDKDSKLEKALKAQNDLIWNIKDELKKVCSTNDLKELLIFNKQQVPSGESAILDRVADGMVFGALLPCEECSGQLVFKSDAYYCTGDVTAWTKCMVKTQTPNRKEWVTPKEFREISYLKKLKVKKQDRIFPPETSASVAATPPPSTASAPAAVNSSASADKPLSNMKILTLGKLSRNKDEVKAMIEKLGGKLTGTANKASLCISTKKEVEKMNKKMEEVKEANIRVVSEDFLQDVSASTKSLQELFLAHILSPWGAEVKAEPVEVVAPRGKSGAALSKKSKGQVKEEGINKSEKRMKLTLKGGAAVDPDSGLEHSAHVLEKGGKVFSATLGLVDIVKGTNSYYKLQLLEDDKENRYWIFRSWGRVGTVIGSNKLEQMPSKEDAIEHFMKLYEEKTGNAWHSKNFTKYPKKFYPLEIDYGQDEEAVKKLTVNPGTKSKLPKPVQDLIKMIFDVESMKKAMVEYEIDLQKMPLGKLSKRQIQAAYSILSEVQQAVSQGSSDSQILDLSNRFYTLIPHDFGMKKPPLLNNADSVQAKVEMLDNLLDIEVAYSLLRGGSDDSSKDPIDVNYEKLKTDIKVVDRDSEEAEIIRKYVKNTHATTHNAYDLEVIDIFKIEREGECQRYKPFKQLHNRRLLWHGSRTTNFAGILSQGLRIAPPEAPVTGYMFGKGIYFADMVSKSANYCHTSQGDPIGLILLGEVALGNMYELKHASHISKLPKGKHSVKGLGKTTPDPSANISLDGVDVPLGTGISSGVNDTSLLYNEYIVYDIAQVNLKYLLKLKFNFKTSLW

The test addresses T1, PARP-1 enzyme (Homo sapiens, UniProt P09874).
T1 construct: made in house
The experiment in a line: in vitro Scintillation Proximity Assay (SPA) for PARP-1 inhibitory activity. The note with it: [3H]-NAD+, biotinylated histones, nicked DNA; dose-response 10^-5 M to 10^-8 M; read-out: in vitro SPA assay PARP-1 pIC50 (converted). The class given is biochemical. How it is done:
In vitro Scintillation Proximity Assay (SPA) for PARP-1 Inhibitory Activity
Compounds of the present invention were tested in an in vitro assay based on SPA technology (proprietary to Amersham Pharmacia Biotech).
In principle, the assay relies upon the well established SPA technology for the detection of poly(ADP-ribosylation of biotinylated target proteins, i.e histones. This ribosylation is induced using nicked DNA activated PARP-1 enzyme and [^3H]-nicotinamide adenine dinucleotide ([^3H]-NAD^+) as ADP-ribosyl donor.
As inducer of PARP-1 enzyme activity, nicked DNA was prepared. For this, 25 mg of DNA (supplier: Sigma) was dissolved in 25 ml DNAse buffer (10 mM Tris-HCl, pH 7.4; 0.5 mg/ml Bovine Serum Albumine (BSA); 5 mM MgCl2.6H2O and 1 mM KCl) to which 50 Al DNAse solution (1 mg/ml in 0.15 M NaCl) was added. After an incubation of 90 min. at 37° C., the reaction was terminated by adding 1.45 g NaCl, followed by a further incubation at 58° C. for 15 min. The reaction mixture was cooled on ice and dialysed at 4° C. for respectively 1.5 and 2 hours against 1.51 of 0.2 M KCl, and twice against 1.51 of 0.01 M KCl for 1.5 and 2 h respectively. The mixture was aliquoted and stored at −20° C. Histones (1 mg/ml, type II-A, supplier: Sigma) were biotinylated using the biotinylation kit of Amersham and stored aliquoted at −20° C. A stock solution of 100 mg/ml SPA poly(vinyl toluene) (PVT) beads (supplier: Amersham) was made in PBS. A stock solution of [^3H]-NAD^+ was made by adding 120 μl of [^3H]-NAD^+ (0.1 mCi/ml, supplier: NEN) to 6 ml incubation buffer (50 mM Tris/HCl, pH 8; 0.2 mM DTT; 4 mM MgCl2). A solution of 4 mM NAD^+ (supplier: Roche) was made in incubation buffer (from a 100 mM stock solution in water stored at −20° C.). The PARP-1 enzyme was produced using art known techniques, i.e. cloning and expression of the protein starting from human liver cDNA. Information concerning the used protein sequence of the PARP-1 enzyme including literature references can be found in the Swiss-Prot database under primary accession number P09874. Biotinylated histones and PVT-SPA beads were mixed and pre-incubated for 30 min. at room temperature. PARP-1 enzyme (concentration was lot dependent) was mixed with the nicked DNA and the mixture was pre-incubated for 30 min. at 4° C. Equal parts of this histones/PVT-SPA beads solution and PARP-1 enzyme/DNA solution were mixed and 75 μl of this mixture together with 1 μl of compound in DMSO and 25 μl of [^3H]-NAD^+ was added per well into a 96-well microtiterplate. The final concentrations in the incubation mixture were 2 μg/ml for the biotinylated histones, 2 mg/ml for the PVT-SPA beads, 2 μg/ml for the nicked DNA and between 5-10 μg/ml for the PARP-1 enzyme. After incubation of the mixture for 15 min. at room temperature, the reaction was terminated by adding 100 μl of 4 mM NAD^+ in incubation buffer (final concentration 2 mM) and plates were mixed.
The beads were allowed to sediment for at least 15 min. and plates transferred to a TopCountNXT™ (Packard) for scintillation counting, values were expressed as counts per minute (cpm). For each experiment, controls (containing PARP-1 enzyme and DMSO without compound), a blank incubation (containing DMSO but no PARP-1 enzyme or compound) and samples (containing PARP-1 enzyme and compound dissolved in DMSO) were run in parallel. All compounds tested were dissolved and eventually further diluted in DMSO. […] In each test, the blank value was subtracted from both the control and the sample values. The control sample represented maximal PARP-1 enzyme activity. For each sample, the amount of cpm was expressed as a percentage of the mean cpm value of the controls. When appropriate, IC50-values (concentration of the drug, needed to reduce the PARP-1 enzyme activity to 50% of the control) were computed using linear interpolation between the experimental points just above and below the 50% level. […]
In general terms: In a scintillation proximity assay essentially only radioactivity close to the scintillant gives light.
As for `O=c1[nH]nc(NC2CCN(C[C@@H](O)[C@@H]3CCc4ccccc4O3)CC2)c2ccccc12` (relative stereo) [Compound 27], the IC50 was 857 nM.

Consider `O=c1[nH]nc(C2CCN(Cc3ccccc3)CC2)c2ccccc12` [Compound 1], for which the IC50 was 284 nM.

As for `O=c1[nH]nc(N[C@@H]2C[C@H]3CC[C@@H](C2)N3CCCC(c2ccc(F)cc2)c2ccc(F)cc2)c2ccccc12` [Compound 3], the IC50 is 430 nM.

For `O=c1[nH]nc(C2CCNCC2)c2ccccc12` [Compound 4], the IC50 is 251 nM.

With `CCOC(=O)N1[C@@H]2CC[C@H]1C[C@H](Nc1n[nH]c(=O)c3ccccc13)C2` [Compound 11], the IC50 was 86.7 nM.

`Clc1nnc(NC2CCN(Cc3ccccc3)C2)c2ccccc12` (centres unmarked) [Compound 12]: the IC50 was 1140 nM.

`O=c1[nH]nc(C2CCN(CCCOc3ccc(F)cc3)CC2)c2ccccc12` [Compound 13]: the IC50 was 75.5 nM.

For `O=c1[nH]nc(N[C@@H]2C[C@H]3CC[C@@H](C2)N3)c2ccccc12` [Compound 15], the IC50 is 139 nM.

Turning to `CCOC(=O)N1[C@@H]2CC[C@H]1C[C@H](Nc1nnc(Cl)c3ccccc13)C2` [Compound 24], the IC50 is 973 nM.

`CCOC(=O)N1CCC(c2n[nH]c(=O)c3ccccc23)CC1` [Compound 25]: the IC50 was 2990 nM.

Turning to `Cc1nnc(N2CCN(CCCC(c3ccc(F)cc3)c3ccc(F)cc3)CC2)c2ccccc12` [Compound 29], the IC50 was 1780 nM.

Take `O=c1[nH]nc(NC2CCCN(CCCC(c3ccc(F)cc3)c3ccc(F)cc3)CC2)c2ccccc12` (centres unmarked) [Compound 30]: the IC50 is 442 nM.

On to `O=c1[nH]nc(NC2CCCNCC2)c2ccccc12` (centres unmarked) [Compound 34], for which the IC50 was 120 nM.

`O=c1[nH]nc(NCC2CCCN(Cc3ccccc3)C2)c2ccccc12` (centres unmarked) [Compound 44]: the IC50 was 1120 nM.

Turning to `O=c1[nH]nc(NC2CCN(CCCCOc3ccccc3)CC2)c2ccccc12` [Compound 46], the IC50 is 843 nM.

On to `CCOC(=O)N1CCC(Nc2n[nH]c(=O)c3ccccc23)C1` (centres unmarked) [Compound 48], for which the IC50 is 3070 nM.

In the case of `O=c1[nH]nc(NCC2CCCN(CCCC(c3ccc(F)cc3)c3ccc(F)cc3)C2)c2ccccc12` (centres unmarked) [Compound 49], the IC50 was 3820 nM.

Regarding `CCOC(=O)N1CCCC(Nc2n[nH]c(=O)c3ccccc23)CC1` (centres unmarked) [Compound 50], the IC50 is 2510 nM.

As to `O=c1[nH]nc(NC2CCN(Cc3ccccc3)C2)c2ccccc12` (centres unmarked) [Compound 51], the IC50 was 432 nM.

Take `O=c1[nH]nc(N2CCN(CCCC(c3ccc(F)cc3)c3ccc(F)cc3)CC2)c2ccccc12` [Compound 52]: the IC50 is 435 nM.

For `O=c1[nH]nc(NC2CCCN(Cc3ccccc3)C2)c2ccccc12` (centres unmarked) [Compound 53], the IC50 is 1070 nM.

`O=c1[nH]nc(N2CCC(c3cccc(C(F)(F)F)c3)C2)c2ccccc12` (centres unmarked) [Compound 55]: the IC50 is 1650 nM.

`CCOC(=O)N1CCC(Nc2n[nH]c(=O)c3ccccc23)CC1` [Compound 56]: the IC50 is 5640 nM.

Regarding `Fc1ccc(C(CCCN2CCN(c3nnc(Cl)c4ccccc34)CC2)c2ccc(F)cc2)cc1` [Compound 57], the IC50 is 1970 nM.

In the case of `CCOC(=O)N1CCN(c2nnc(Cl)c3ccccc23)CC1` [Compound 58], the IC50 is 10000 nM.

Regarding `Clc1nnc(NC2CCN(CCCCOc3ccccc3)CC2)c2ccccc12` [Compound 59], the IC50 is 3300 nM.

Turning to `CN(c1nc2ccccc2s1)C1CCN(c2nnc(Cl)c3ccccc23)CC1` [Compound 61], the IC50 was 1290 nM.

Consider `COc1ccc(CCN2CCC(Nc3n[nH]c(=O)c4ccccc34)CC2)cc1` [Compound 63], for which the IC50 was 684 nM.

With `O=c1[nH]nc(NC2CCN(C/C=C/c3ccccc3)CC2)c2ccccc12` [Compound 65], the IC50 was 851 nM.

Consider `O=c1[nH]nc(C2CCN(C/C=C/c3ccccc3)CC2)c2ccccc12` [Compound 66], for which the IC50 was 767 nM.

With `O=c1[nH]nc(C2CCN(CCCC(c3ccc(F)cc3)c3ccc(F)cc3)CC2)c2ccccc12` [Compound 67], the IC50 is 303 nM.

On to `O=c1[nH]nc(C2CCN(CCCCOc3ccccc3)CC2)c2ccccc12` [Compound 68], for which the IC50 is 274 nM.

Turning to `O=c1[nH]nc(C2CCN(c3ncccn3)CC2)c2ccccc12` [Compound 69], the IC50 was 2150 nM.

Regarding `Cc1nnc(N2CCN(CCn3c(=O)[nH]c4ccccc4c3=O)CC2)c2ccccc12` [Compound 70], the IC50 was 3440 nM.

Consider `Cc1nnc(N2CCN(CCn3c(=O)[nH]c4ccccc43)CC2)c2ccccc12` [Compound 71], for which the IC50 is 7410 nM.

For the compound `Cc1nc2ccccn2c(=O)c1CCN1CCN(c2nnc(C)c3ccccc23)CC1` [Compound 72], the IC50 was 8970 nM.

As to `Cc1nc2sccn2c(=O)c1CCN1CCN(c2nnc(C)c3ccccc23)CC1` [Compound 73], the IC50 was 1900 nM.

Turning to `Cc1nc2scc(C)n2c(=O)c1CCN1CCN(c2nnc(C)c3ccccc23)CC1` [Compound 74], the IC50 was 3210 nM.

For `Cc1nc2n(c(=O)c1CCN1CCN(c3nnc(C)c4ccccc34)CC1)CCS2` [Compound 75], the IC50 was 4240 nM.

For the compound `Cc1nc2n(c(=O)c1CCN1CCN(c3nnc(C)c4ccccc34)CC1)CCCS2` [Compound 76], the IC50 is 3630 nM.

For the compound `Clc1nnc(N2CCN(c3ccccc3)CC2)c2ccccc12` [Compound 77], the IC50 was 1320 nM.
